In patent publication US10829520B2, “Beta-hairpin peptidomimetics” (POLYPHOR AG, priority 2015, dated 2020):
Where a SMILES comes first, the peptide text is derived from it. Bridges are numbered along the chain shown (N, C = ends). Roman numbers before positions name the chains, in order. [ ]: non-standard residue; d: D form. NMeDab = CN[C@@H](CCN)C(=O)O; Tle = CC(C)(C)[C@H](N)C(=O)O; dDab = NCC[C@@H](N)C(=O)O; Nle = CCCC[C@H](N)C(=O)O; Orn = NCCC[C@H](N)C(=O)O; Dab = NCC[C@H](N)C(=O)O

Columns and labels:
Type in all cases: cell-based
[1] = tested on: human red blood cells (hRBC); experiment: Hemolysis of human red blood cells; settings: red cells of human, 1 h, 100
Summary of the method: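 Fresh human red blood cells are washed in PBS, then shaken with peptide (100 μg/mL) at 37° C. for 1 h, final erythrocyte density about 0.9×10^9 cells/mL. After centrifugation, diluted supernatants are read at 540 nm against buffer (0%) and Triton X-100 (100%) lysis controls.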

[2] = tested on: Klebsiella pneumoniae 968733; settings: 968733
[3] = tested on: Pseudomonas aeruginosa ATCC 27853; settings: ATCC 27853
Summary of the method: (§1)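 MIC in μg/mL read as absence of visible growth after 18-20 h incubation at 35° C. Bacteria at about 10^6 CFU/mL in MH-II (cation-adjusted) broth plus 0.002% P-80 were exposed to two-fold peptide dilutions per standard CLSI microdilution.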

[4] = tested on: Klebsiella pneumoniae SSI #3010; settings: SSI #3010
Summary of the method: as §1

Escherichia coli 926415 = settings: 926415
[5] = tested on: Escherichia coli ATCC 25922; settings: ATCC 25922
Summary of the method: as §1

[6] = tested on: Acinetobacter baumannii DSM 30008; settings: DSM 30008
Summary of the method: as §1

[7] = tested on: Acinetobacter baumannii 872842; settings: 872842

Structure (SMILES): CCCC[C@@H]1NC(=O)[C@@H]2CCCN2C(=O)[C@H]2CCCN2C(=O)[C@H](CO)NC(=O)[C@H](C)NC(=O)[C@H](C(C)(C)C)NC(=O)[C@H](CCN)NC(=O)[C@H](Cc2c[nH]c3ccccc23)NC(=O)[C@H](CCN)NC(=O)[C@@H](CCN)NC(=O)[C@H](CC(=O)N[C@H](CCN)C(=O)N[C@H]2CCNC(=O)[C@H]([C@@H](C)O)NC(=O)[C@H](CCN)NC(=O)[C@H](CCN)NC(=O)[C@H](CC(C)C)NC(=O)[C@@H](Cc3ccccc3)NC(=O)[C@H](CCN)NC2=O)NC(=O)[C@H](CCN)NC(=O)[C@H](Cc2ccc(O)cc2)NC(=O)[C@H](CO)NC1=O [Ex. 66] (I: cyclo([Nle]SY[Dab]D[dDab][Dab]W[Dab][Tle]AS[dP]P) / II: [dDab][Dab][Dab][dF]L[Dab][Dab]T; amide I:5-II:N; lactam II:2-II:C)
- Hemolysis at 100 μg/mL [1]: 1%
- Klebsiella pneumoniae 968733 MIC [2]: 2 µg/mL
- Pseudomonas aeruginosa ATCC 27853 MIC [3]: 1 µg/mL
- Klebsiella pneumoniae SSI #3010 MIC [4]: 1 µg/mL
- Escherichia coli 926415 MIC (Escherichia coli 926415): 2 µg/mL
- Escherichia coli ATCC 25922 MIC [5]: 0.25 µg/mL
- Acinetobacter baumannii DSM 30008 MIC [6]: 1 µg/mL
- Acinetobacter baumannii 872842 MIC [7]: 4 µg/mL

Structure (SMILES): CCCC[C@@H]1NC(=O)[C@@H]2CCCN2C(=O)[C@H]2CCCN2C(=O)[C@H](CO)NC(=O)[C@H](C)NC(=O)[C@H](C(C)(C)C)NC(=O)[C@H](CCN)NC(=O)[C@H](Cc2c[nH]c3ccccc23)NC(=O)[C@H](CCN)NC(=O)[C@@H](CCN)NC(=O)[C@H](CC(=O)N[C@@H](CCN)C(=O)N[C@H]2CCNC(=O)[C@H]([C@@H](C)O)NC(=O)[C@H](CCN)NC(=O)[C@H](CCN)NC(=O)[C@H](CC(C)C)NC(=O)[C@@H](Cc3ccccc3)NC(=O)[C@H](CCN)NC2=O)NC(=O)[C@H](CCN)NC(=O)[C@H](Cc2ccc(O)cc2)NC(=O)[C@H](CO)NC1=O [Ex. 67] (I: cyclo([Nle]SY[Dab]D[dDab][Dab]W[Dab][Tle]AS[dP]P) / II: [Dab][Dab][Dab][dF]L[Dab][Dab]T; amide I:5-II:N; lactam II:2-II:C)
- Hemolysis at 100 μg/mL [1]: <1%
- Klebsiella pneumoniae 968733 MIC [2]: 2 µg/mL
- Pseudomonas aeruginosa ATCC 27853 MIC [3]: 1 µg/mL
- Klebsiella pneumoniae SSI #3010 MIC [4]: 2 µg/mL
- Escherichia coli 926415 MIC (Escherichia coli 926415): 2 µg/mL
- Escherichia coli ATCC 25922 MIC [5]: 1 µg/mL
- Acinetobacter baumannii DSM 30008 MIC [6]: 1 µg/mL
- Acinetobacter baumannii 872842 MIC [7]: 4 µg/mL

Structure (SMILES): CCCC[C@@H]1NC(=O)[C@@H]2CCCN2C(=O)[C@H]2CCCN2C(=O)[C@H](CO)NC(=O)[C@H](C)NC(=O)[C@H](C(C)(C)C)NC(=O)[C@H](CCN)NC(=O)[C@H](Cc2c[nH]c3ccccc23)NC(=O)[C@H](CCN)NC(=O)[C@@H](CCN)NC(=O)[C@H](CC(=O)N(C)[C@@H](CCN)C(=O)N[C@H]2CCNC(=O)[C@H]([C@@H](C)O)NC(=O)[C@H](CCN)NC(=O)[C@H](CCN)NC(=O)[C@H](CC(C)C)NC(=O)[C@@H](Cc3ccccc3)NC(=O)[C@H](CCN)NC2=O)NC(=O)[C@H](CCN)NC(=O)[C@H](Cc2ccc(O)cc2)NC(=O)[C@H](CO)NC1=O [Ex. 69] (I: cyclo([Nle]SY[Dab]D[dDab][Dab]W[Dab][Tle]AS[dP]P) / II: [NMeDab][Dab][Dab][dF]L[Dab][Dab]T; amide I:5-II:N; lactam II:2-II:C)
- Hemolysis at 100 μg/mL [1]: 2%
- Klebsiella pneumoniae 968733 MIC [2]: 2 µg/mL
- Pseudomonas aeruginosa ATCC 27853 MIC [3]: 1 µg/mL
- Klebsiella pneumoniae SSI #3010 MIC [4]: 1 µg/mL
- Escherichia coli 926415 MIC (Escherichia coli 926415): 2 µg/mL
- Escherichia coli ATCC 25922 MIC [5]: 0.5 µg/mL
- Acinetobacter baumannii DSM 30008 MIC [6]: 1 µg/mL
- Acinetobacter baumannii 872842 MIC [7]: 4 µg/mL

Structure (SMILES): CCCC[C@@H]1NC(=O)[C@@H]2CCCN2C(=O)[C@H]2CCCN2C(=O)[C@H](CO)NC(=O)[C@H](C)NC(=O)[C@H](C(C)(C)C)NC(=O)[C@H](CCN)NC(=O)[C@H](Cc2c[nH]c3ccccc23)NC(=O)[C@H](CCC(=O)N[C@@H](CCN)C(=O)N[C@H]2CCNC(=O)[C@H]([C@@H](C)O)NC(=O)[C@H](CCN)NC(=O)[C@H](CCN)NC(=O)[C@H](CC(C)C)NC(=O)[C@@H](CC(C)C)NC(=O)[C@H](CCN)NC2=O)NC(=O)[C@@H](CCN)NC(=O)[C@H](CCCN)NC(=O)[C@H](CCN)NC(=O)[C@H](Cc2ccc(O)cc2)NC(=O)[C@H](CO)NC1=O [Ex. 70] (I: cyclo([Nle]SY[Dab][Orn][dDab]EW[Dab][Tle]AS[dP]P) / II: [Dab][Dab][Dab][dL]L[Dab][Dab]T; amide I:7-II:N; lactam II:2-II:C)
- Hemolysis at 100 μg/mL [1]: <1%
- Klebsiella pneumoniae 968733 MIC [2]: 8 µg/mL
- Pseudomonas aeruginosa ATCC 27853 MIC [3]: 0.5 µg/mL
- Klebsiella pneumoniae SSI #3010 MIC [4]: 2 µg/mL
- Escherichia coli 926415 MIC (Escherichia coli 926415): 1 µg/mL
- Escherichia coli ATCC 25922 MIC [5]: 1 µg/mL
- Acinetobacter baumannii DSM 30008 MIC [6]: 1 µg/mL
- Acinetobacter baumannii 872842 MIC [7]: 2 µg/mL

Structure (SMILES): CCCC[C@@H]1NC(=O)[C@@H]2CCCN2C(=O)[C@H]2CCCN2C(=O)[C@H](CO)NC(=O)[C@H](C)NC(=O)[C@H](C(C)(C)C)NC(=O)[C@H](CCN)NC(=O)[C@H](Cc2c[nH]c3ccccc23)NC(=O)[C@H](CCN)NC(=O)[C@@H](CCN)NC(=O)[C@H](CC(=O)N[C@@H](CCN)C(=O)N[C@H]2CCNC(=O)[C@H]([C@@H](C)O)NC(=O)[C@H](CCN)NC(=O)[C@H](CCN)NC(=O)[C@H](CC(C)C)NC(=O)[C@@H](CC(C)C)NC(=O)[C@H](CCN)NC2=O)NC(=O)[C@H](CCN)NC(=O)[C@H](Cc2ccc(O)cc2)NC(=O)[C@H](CO)NC1=O [Ex. 71] (I: cyclo([Nle]SY[Dab]D[dDab][Dab]W[Dab][Tle]AS[dP]P) / II: [Dab][Dab][Dab][dL]L[Dab][Dab]T; amide I:5-II:N; lactam II:2-II:C)
- Hemolysis at 100 μg/mL [1]: <1%
- Klebsiella pneumoniae 968733 MIC [2]: 2 µg/mL
- Pseudomonas aeruginosa ATCC 27853 MIC [3]: 0.5 µg/mL
- Klebsiella pneumoniae SSI #3010 MIC [4]: 2 µg/mL
- Escherichia coli 926415 MIC (Escherichia coli 926415): 0.25 µg/mL
- Escherichia coli ATCC 25922 MIC [5]: 0.125 µg/mL
- Acinetobacter baumannii DSM 30008 MIC [6]: 0.5 µg/mL
- Acinetobacter baumannii 872842 MIC [7]: 1 µg/mL

Structure (SMILES): CCCC[C@@H]1NC(=O)[C@@H]2CCCN2C(=O)[C@H]2CCCN2C(=O)[C@H](CO)NC(=O)[C@H](C)NC(=O)[C@H](C(C)(C)C)NC(=O)[C@H](CCN)NC(=O)[C@H](Cc2c[nH]c3ccccc23)NC(=O)[C@H](CCN)NC(=O)[C@@H](CCN)NC(=O)[C@H](CCC(=O)N[C@H](CCN)C(=O)N[C@H]2CCNC(=O)[C@H]([C@@H](C)O)NC(=O)[C@H](CCN)NC(=O)[C@H](CCN)NC(=O)[C@H](CC(C)C)NC(=O)[C@@H](CC(C)C)NC(=O)[C@H](CCN)NC2=O)NC(=O)[C@H](CCN)NC(=O)[C@H](Cc2ccc(O)cc2)NC(=O)[C@H](CO)NC1=O [Ex. 72] (I: cyclo(W[Dab][Tle]AS[dP]P[Nle]SY[Dab]E[dDab][Dab]) / II: [dDab][Dab][Dab][dL]L[Dab][Dab]T; amide I:12-II:N; lactam II:2-II:C)
- Hemolysis at 100 μg/mL [1]: <1%
- Klebsiella pneumoniae 968733 MIC [2]: 1 µg/mL
- Pseudomonas aeruginosa ATCC 27853 MIC [3]: 1 µg/mL
- Klebsiella pneumoniae SSI #3010 MIC [4]: 1 µg/mL
- Escherichia coli 926415 MIC (Escherichia coli 926415): 0.5 µg/mL
- Escherichia coli ATCC 25922 MIC [5]: 1 µg/mL
- Acinetobacter baumannii DSM 30008 MIC [6]: 1 µg/mL
- Acinetobacter baumannii 872842 MIC [7]: 1 µg/mL

Structure (SMILES): CCCC[C@@H]1NC(=O)[C@@H]2CCCN2C(=O)[C@H]2CCCN2C(=O)[C@H](CO)NC(=O)[C@H](C)NC(=O)[C@H](C(C)(C)C)NC(=O)[C@H](CCN)NC(=O)[C@H](Cc2c[nH]c3ccccc23)NC(=O)[C@H](CCN)NC(=O)[C@@H](CCN)NC(=O)[C@H](CC(=O)N(C)[C@@H](CCN)C(=O)N[C@H]2CCNC(=O)[C@H]([C@@H](C)O)NC(=O)[C@H](CCN)NC(=O)[C@H](CCN)NC(=O)[C@H](CC(C)C)NC(=O)[C@@H](CC(C)C)NC(=O)[C@H](CCN)NC2=O)NC(=O)[C@H](CCN)NC(=O)[C@H](Cc2ccc(O)cc2)NC(=O)[C@H](CO)NC1=O [Ex. 73] (I: cyclo(W[Dab][Tle]AS[dP]P[Nle]SY[Dab]D[dDab][Dab]) / II: [NMeDab][Dab][Dab][dL]L[Dab][Dab]T; amide I:12-II:N; lactam II:2-II:C)
- Hemolysis at 100 μg/mL [1]: 1%
- Klebsiella pneumoniae 968733 MIC [2]: 0.5 µg/mL
- Pseudomonas aeruginosa ATCC 27853 MIC [3]: 0.25 µg/mL
- Klebsiella pneumoniae SSI #3010 MIC [4]: 0.5 µg/mL
- Escherichia coli 926415 MIC (Escherichia coli 926415): 0.5 µg/mL
- Escherichia coli ATCC 25922 MIC [5]: 0.25 µg/mL
- Acinetobacter baumannii DSM 30008 MIC [6]: 0.25 µg/mL
- Acinetobacter baumannii 872842 MIC [7]: 0.5 µg/mL

Structure (SMILES): CCCC[C@@H]1NC(=O)[C@@H]2CCCN2C(=O)[C@H]2CCCN2C(=O)[C@H](CO)NC(=O)[C@H](C)NC(=O)[C@H](C(C)(C)C)NC(=O)[C@H](CCN)NC(=O)[C@H](Cc2c[nH]c3ccccc23)NC(=O)[C@H](CCN)NC(=O)[C@H](CCC(=O)N[C@@H](CCN)C(=O)N[C@H](CCN)C(=O)N[C@H]2CCNC(=O)[C@H]([C@@H](C)O)NC(=O)[C@H](CCN)NC(=O)[C@H](CCN)NC(=O)[C@H](CC(C)C)NC(=O)[C@@H](Cc3ccccc3)NC(=O)[C@H](CCN)NC2=O)NC(=O)[C@H](CCCN)NC(=O)[C@H](CCN)NC(=O)[C@H](Cc2ccc(O)cc2)NC(=O)[C@H](CO)NC1=O [Ex. 74] (I: cyclo([Nle]SY[Dab][Orn]E[Dab]W[Dab][Tle]AS[dP]P) / II: [Dab][dDab][Dab][Dab][dF]L[Dab][Dab]T; amide I:6-II:N; lactam II:3-II:C)
- Hemolysis at 100 μg/mL [1]: 2%
- Klebsiella pneumoniae 968733 MIC [2]: 2 µg/mL
- Pseudomonas aeruginosa ATCC 27853 MIC [3]: 1 µg/mL
- Klebsiella pneumoniae SSI #3010 MIC [4]: 1 µg/mL
- Escherichia coli 926415 MIC (Escherichia coli 926415): 1 µg/mL
- Escherichia coli ATCC 25922 MIC [5]: 2 µg/mL
- Acinetobacter baumannii DSM 30008 MIC [6]: 1 µg/mL
- Acinetobacter baumannii 872842 MIC [7]: 4 µg/mL
